Results published in US20250228239A1, “MOLECULES HAVING PESTICIDAL UTILITY, AND INTERMEDIATES, COMPOSITIONS, AND PROCESSES, RELATED THERETO” (priority 2024, published 2025).

Columns and labels:
[1] = system: Cabbage Looper (Trichoplusia ni, TRIPNI); experiment: Bioassays on Cabbage Looper (CL), 128-well diet tray assay; format: in vivo; conditions: Trichoplusia ni; Cabbage Looper; rating class; read-out: CL
How it was run: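 Diet tray, 2nd instar, 1–5 larvae/well; 50 μg/cm^2 compound surface-applied (acetone:water 90:10), dried; 8 wells/treatment; 25° C, 14:10 L:D, 5–7 d; % mortality, mean of 8 wells.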

[2] = system: Beet Armyworm (Spodoptera exigua, LAPHEG); experiment: Bioassays on Beet Armyworm (BAW), 128-well diet tray assay; format: in vivo; conditions: Spodoptera exigua; Beet Armyworm; rating class; read-out: BAW
How it was run: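 Larvae at second instar are exposed on dried, compound-treated diet (50 μg/cm^2, delivered in 90:10 acetone-water) in eight replicate wells. After five to seven days at 25° C., 14:10 light-dark, percent mortality in each well is scored and the eight wells averaged.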

Row | SMILES | pest or weed control at 50 µg/cm2 [1] | pest or weed control at 50 µg/cm2 [2]
1 | CCOC(C)C(=O)N(C)c1c(F)ccc(NC(=O)c2cc(NC(=O)[C@H]3[C@H](c4ccc(Cl)c(Cl)c4)C3(Cl)Cl)ccc2Cl)c1F (stereo partly drawn) [F1616, 2-Chloro-5-((1R,3R)-2,2-dichloro-3-(3,4-dichlorophenyl)cyclopropane-1-carboxamido)-N-(3-(2-ethoxy-N-methylpropanamido)-2,4-difluorophenyl)benzamide] | 50 to 100% | 50 to 100%
2 | Nc1c(F)ccc(NC(=O)c2cc(NC(=O)[C@H]3[C@H](c4ccc(Cl)c(C(F)(F)F)c4)C3(Cl)Cl)ccc2Cl)c1F [F1631, N-(3-Amino-2,4-difluorophenyl)-2-chloro-5-((1R,3R)-2,2-dichloro-3-(4-chloro-3-(trifluoromethyl)phenyl)cyclopropane-1-carboxamido)benzamide] | 50 to 100% | 50 to 100%
3 | O=C(Nc1ccc(F)c(NC(=O)C2CCCO2)c1F)c1cc(NC(=O)[C@H]2[C@H](c3cc(Cl)c(Cl)c(Cl)c3)C2(Cl)Cl)ccc1Cl (stereo partly drawn) [F1647, N-(3-(2-Chloro-5-((1R,3R)-2,2-dichloro-3-(3,4,5-trichlorophenyl)cyclopropane-1-carboxamido)benzamido)-2,6-difluorophenyl)tetrahydrofuran-2-carboxamide] | 50 to 100% | 50 to 100%
4 | O=C(Nc1c(F)ccc(NC(=O)c2cc(NC(=O)[C@H]3[C@H](c4cc(Cl)c(Cl)c(Cl)c4)C3(Cl)Cl)ccc2Cl)c1F)c1ccco1 [F1648, N-(3-(2-Chloro-5-((1R,3R)-2,2-dichloro-3-(3,4,5-trichlorophenyl)cyclopropane-1-carboxamido)benzamido)-2,6-difluorophenyl)furan-2-carboxamide] | 50 to 100% | 50 to 100%
5 | O=C1CC(C(=O)Nc2c(F)ccc(NC(=O)c3cc(NC(=O)[C@H]4[C@H](c5cc(Cl)c(Cl)c(Cl)c5)C4(Cl)Cl)ccc3Cl)c2F)C1 [F1649, 2-Chloro-5-((1R,3R)-2,2-dichloro-3-(3,4,5-trichlorophenyl)cyclopropane-1-carboxamido)-N-(2,4-difluoro-3-(3-oxocyclobutane-1-carboxamido)phenyl)benzamide] | 50 to 100% | 50 to 100%
6 | N#CCC(=O)Nc1c(F)ccc(NC(=O)c2cc(NC(=O)[C@H]3[C@H](c4cc(Cl)c(Cl)c(Cl)c4)C3(Cl)Cl)ccc2Cl)c1F [F1650, 2-Chloro-N-(3-(2-cyanoacetamido)-2,4-difluorophenyl)-5-((1R,3R)-2,2-dichloro-3-(3,4,5-trichlorophenyl)cyclopropane-1-carboxamido)benzamide] | 50 to 100% | 50 to 100%
7 | O=C(Nc1ccc(F)c(NC(=O)C(F)(F)C(F)(F)C(F)(F)F)c1F)c1cc(NC(=O)[C@H]2[C@H](c3cc(Cl)c(Cl)c(Cl)c3)C2(Cl)Cl)ccc1Cl [F1652, 2-Chloro-5-((1R,3R)-2,2-dichloro-3-(3,4,5-trichlorophenyl)cyclopropane-1-carboxamido)-N-(2,4-difluoro-3-(2,2,3,3,4,4,4-heptafluorobutanamido)phenyl)benzamide] | 50 to 100% | 50 to 100%
8 | CCCC(=O)Nc1c(F)ccc(NC(=O)c2cc(NC(=O)[C@H]3[C@H](c4ccc(Cl)c(C(F)(F)F)c4)C3(Cl)Cl)ccc2Cl)c1F [F1659, N-(3-Butyramido-2,4-difluorophenyl)-2-chloro-5-((1R,3R)-2,2-dichloro-3-(4-chloro-3-(trifluoromethyl)phenyl)cyclopropane-1-carboxamido)benzamide] | 50 to 100% | 50 to 100%
9 | O=C(Nc1ccc(F)c(NC(=O)C2(C(F)(F)F)CC2)c1F)c1cc(NC(=O)[C@H]2[C@H](c3ccc(Cl)c(Cl)c3)C2(Cl)Cl)ccc1Cl [F1662, 2-Chloro-5-((1R,3R)-2,2-dichloro-3-(3,4-dichlorophenyl)cyclopropane-1-carboxamido)-N-(2,4-difluoro-3-(1-(trifluoromethyl)cyclopropane-1-carboxamido)phenyl)benzamide] | 50 to 100% | 50 to 100%
10 | O=C(Nc1ccc(F)c(NC(=O)[C@H]2CCCN2)c1F)c1cc(NC(=O)[C@H]2[C@H](c3ccc(Cl)c(Cl)c3)C2(Cl)Cl)ccc1Cl [F1663, (R)—N-(3-(2-Chloro-5-((1R,3R)-2,2-dichloro-3-(3,4-dichlorophenyl)cyclopropane-1-carboxamido)benzamido)-2,6-difluorophenyl)pyrrolidine-2-carboxamide] | 50 to 100% | 50 to 100%
11 | O=C(Nc1ccc(F)c(NC(=O)[C@@H]2CCCN2)c1F)c1cc(NC(=O)[C@H]2[C@H](c3ccc(Cl)c(Cl)c3)C2(Cl)Cl)ccc1Cl [F1664, (S)—N-(3-(2-chloro-5-((1R,3R)-2,2-dichloro-3-(3,4-dichlorophenyl)cyclopropane-1-carboxamido)benzamido)-2,6-difluorophenyl)pyrrolidine-2-carboxamide] | 50 to 100% | 50 to 100%
12 | CC(C)(C)OC(=O)N(C(=O)OC(C)(C)C)c1c(F)ccc(NC(=O)c2cc(NC(=O)[C@H]3[C@H](c4cccc(C(F)(F)F)c4)C3(Cl)Cl)ccc2Cl)c1F [F1665, tert-Butyl N-tert-butoxycarbonyl-N-[3-[[2-chloro-5-[[(1R,3R)-2,2-dichloro-3-[3-(trifluoromethyl)phenyl]cyclopropanecarbonyl]amino]benzoyl]amino]-2,6-difluoro-phenyl]carbamate] | 50 to 100% | 50 to 100%
13 | O=C(Nc1c(F)ccc(NC(=O)c2cc(NC(=O)[C@H]3[C@H](c4ccc(Cl)c(Cl)c4)C3(Cl)Cl)ccc2Cl)c1F)c1ccns1 [F1672] | 50 to 100% | 50 to 100%
14 | Cc1c(F)c(N)cc(NC(=O)c2cc(NC(=O)[C@H]3[C@H](c4ccc(F)c(C(F)(F)F)c4)C3(Cl)Cl)ccc2Cl)c1F [F1674, N-(5-Amino-2,4-difluoro-3-methylphenyl)-2-chloro-5-((1R,3R)-2,2-dichloro-3-(4-fluoro-3-(trifluoromethyl)phenyl)cyclopropane-1-carboxamido)benzamide] | 50 to 100% | 50 to 100%
15 | O=C(Nc1ccc(F)c(NC(=O)C2CCCO2)c1F)c1cc(NC(=O)[C@H]2[C@H](c3cccc(C(F)(F)F)c3)C2(Cl)Cl)ccc1Cl (stereo partly drawn) [F1676, N-(3-(2-Chloro-5-((1R,3R)-2,2-dichloro-3-(3-(trifluoromethyl)phenyl)cyclopropane-1-carboxamido)benzamido)-2,6-difluorophenyl)tetrahydrofuran-2-carboxamide] | 50 to 100% | 50 to 100%
16 | O=C(Nc1ccc(F)c(NC(=O)C(F)(F)C(F)F)c1F)c1cc(NC(=O)[C@H]2[C@H](c3cccc(C(F)(F)F)c3)C2(Cl)Cl)ccc1Cl [F1677, 2-Chloro-5-((1R,3R)-2,2-dichloro-3-(3-(trifluoromethyl)phenyl)cyclopropane-1-carboxamido)-N-(2,4-difluoro-3-(2,2,3,3-tetrafluoropropanamido)phenyl)benzamide] | 50 to 100% | 50 to 100%
17 | CC(C)(C)OC(=O)N(C(=O)OC(C)(C)C)c1c(F)ccc(NC(=O)c2cc(NC(=O)[C@H]3[C@H](c4cc(F)cc(C(F)(F)F)c4)C3(Cl)Cl)ccc2Cl)c1F [F1681, tert-Butyl N-tert-butoxycarbonyl-N-[3-[[2-chloro-5-[[(1R,3R)-2,2-dichloro-3-[3-fluoro-5-(trifluoromethyl)phenyl]cyclopropanecarbonyl]amino]benzoyl]amino]-2,6-difluoro-phenyl]carbamate] | 50 to 100% | 50 to 100%
18 | O=C(CC(F)(F)F)Nc1c(F)ccc(NC(=O)c2cc(NC(=O)[C@H]3[C@H](c4ccc(F)c(C(F)(F)F)c4)C3(Cl)Cl)ccc2Cl)c1F [F1683, 2-Chloro-5-((1R,3R)-2,2-dichloro-3-(4-fluoro-3-(trifluoromethyl)phenyl)cyclopropane-1-carboxamido)-N-(2,4-difluoro-3-(3,3,3-trifluoropropanamido)phenyl)benzamide] | 50 to 100% | 50 to 100%
19 | O=C(Nc1ccc(F)cc1F)c1cc(NC(=O)[C@H]2[C@H](c3cc(F)c(F)c(F)c3)C2(Cl)Cl)ccc1Cl [F1693, 2-Chloro-5-((1R,3R)-2,2-dichloro-3-(3,4,5-trifluorophenyl)cyclopropane-1-carboxamido)-N-(2,4-difluorophenyl)benzamide] | 50 to 100% | 50 to 100%
20 | Nc1c(F)ccc(NC(=O)c2cc(NC(=O)[C@H]3[C@H](c4ccc(F)c(Br)c4)C3(Cl)Cl)ccc2Cl)c1F [F1713, N-(3-Amino-2,4-difluorophenyl)-5-((1R,3R)-3-(3-bromo-4-fluorophenyl)-2,2-dichlorocyclopropane-1-carboxamido)-2-chlorobenzamide] | 50 to 100% | 50 to 100%
21 | O=C(Nc1ccc(F)c(NC(=O)C2CCCO2)c1F)c1cc(NC(=O)[C@H]2[C@H](c3ccc(F)c(Br)c3)C2(Cl)Cl)ccc1Cl (stereo partly drawn) [F1714, N-(3-(5-((1R,3R)-3-(3-Bromo-4-fluorophenyl)-2,2-dichlorocyclopropane-1-carboxamido)-2-chlorobenzamido)-2,6-difluorophenyl)tetrahydrofuran-2-carboxamide] | 50 to 100% | 50 to 100%
22 | O=C(Nc1ccc(F)c(NC(=O)C(F)(F)C(F)F)c1F)c1cc(NC(=O)[C@H]2[C@H](c3ccc(F)c(Br)c3)C2(Cl)Cl)ccc1Cl [F1715, 5-((1R,3R)-3-(3-Bromo-4-fluorophenyl)-2,2-dichlorocyclopropane-1-carboxamido)-2-chloro-N-(2,4-difluoro-3-(2,2,3,3-tetrafluoropropanamido)phenyl)benzamide] | 50 to 100% | 50 to 100%
